Tested on: adventitious root formation in control and PtrXB38-OE micro-cuttings
Experiment: Adventitious root formation of micro-propagated cuttings in ½ MS medium with chemical treatment
Format: in vivo, P. tremula×P. alba ‘INRA 717-1B4’
Procedure: Plant Growth Conditions: The tissue culture plants were maintained in ½ MS media (½ MS basal salts, 20 g/L sucrose, 1× Gamborg's B5 vitamin mixture, 0.3% Gelzan) supplemented with 0.1 mg/L IBA and grown in growth chambers (16 h:8 h, light:dark) with white fluorescent light (100 μmol m^−2 s^−1) at 22° C. To assess adventitious root development phenotype, 2-3 cm length of shoot tops from 1-month-old tissue culture saplings were excised and placed in fresh medium for root induction. Root number was counted 12 days after subculture. For chemical treatment, filter-sterilized auxin transport inhibitor naphthylphthalamic acid (NPA) and ethylene biosynthesis inhibitor aminoethoxyvinylglycine (AVG) were added in the ½ MS medium.

With `O=C(O)c1ccccc1C(=O)Nc1cccc2ccccc12` [NPA, naphthylphthalamic acid] the root formation (5 μM NPA, both control and PtrXB38-OE micro-cuttings) was “completely blocked root formation” and the “promotive effect of PtrXB38 on AR formation (adventitious root number)” value (increasing NPA concentrations (0.2 μM and 1 μM, FIG. 3D), PtrXB38-OE plants) was “gradually attenuated”.

Source: patent US12703870B2, “Regulation of root development” (UT-Battelle, LLC, priority 2023, dated 2026)
